Earlier results in patent US11779591B2, “Compositions containing decitabine, 5azacytidine and tetrahydrouridine and uses thereof” (Epidestiny, Inc., priority 2015, dated 2023).

Conditions: rapid deamination by CDA

Nc1ccn([C@@H]2O[C@H](CO)[C@@H](O)[C@@H]2[18F])c(=O)n1 [FAC, 1-(2′-deoxy-2′-[18F]-fluoro-β-D-arabinofuranosyl)cytosine]
distribution into solid tissues such as the liver and kidneys: did not adequately distribute into solid tissues
